Measured values published in patent publication US20250276924A1, “CHEMICAL AND BIOLOGICAL DEGRADATION OF ETHER PER- AND POLYFLUOROALKYL SUBSTANCES” (The Regents of the University of California, priority 2024, published 2025).

Assay: Chemical treatment by UV (254 nm)/sulfite advanced reduction at pH 9.5
Assay type: physicochemical
Description: The chemical treatment of five non-biodegradable PFAS was conducted in 600 mL closed-system batch reactors equipped with a low-pressure mercury lamp (254 nm, 18 W) at 20° C. The reaction mixture contained 25 μM ether PFAS, 10 mM Na2SO3, and 5 mM NaHCO3 at pH 9.5 adjusted by NaOH. […]

Compound	defluorination by chemical reductive degradation (UV 254 nm, SO3^2− 10 mM, pH 9.5, after 48 h)	degradation by UV/sulfite treatment (second advanced reduction treatment, result in words)
O=C(O)C(F)(OC(F)(F)C(F)(F)C(F)(F)F)C(F)(F)F (centres unmarked) [E10, 2,3,3,3-tetrafluoro-2-(perfluoropropoxy)propanoic acid]	less than 50%	
Trifluoroacetic acid [TP112]		quickly and completely degraded
